Source: article PMC9266460, “KSK-74: Dual Histamine H3 and Sigma-2 Receptor Ligand with Anti-Obesity Potential” (International Journal of Molecular Sciences, 2022)

Experiments:
[1] = test system: rats fed a palatable diet; test: Intraperitoneal glucose tolerance test; assay type: in vivo, female Wistar rats; settings: 10 mg/kg; for blood glucose levels after glucose load vs control animals fed palatable feed: glucose 1 g/kg i.p., 29th day
Experimental: The test was conducted on the 29th day of the experiment. After twenty-eight administrations of the test compounds, the food was stopped for 20 h and then glucose tolerance was tested. Glucose (1 g/kg b.w.) was administered i.p.. Blood samples were obtained from the tail vein at the time points 0 (before glucose administration), 30, 60, and 120 min after administration. Glucose levels were measured with a glucometer (ContourTS, Bayer, Leverkusen, Germany, test stripes: ContourTS, Ascensia Diabetes care Poland Sp. z o. o., Poland, REF:84239666). The area under the curve (AUC) was calculated using the trapezoidal rule.

[2] = Pharmacokinetic study, single i.p. dose, plasma LC-MS/MS; assay type: in vivo, rat; settings: for Tmax / Cmax / CL/F / MRT / half-life / k el / Vd/F: ip; for Tmax / Cmax / CL/F / MRT / half-life / k el / Vz/F (volume of distribution) / Vd/F: rat plasma, single i.p. dose of 10 mg/kg; for Cmax: n = 3, non-compartmental; for CL/F: read-out: CLS/F (clearance) (converted); for MRT: read-out: MRT (mean residence time); for half-life: read-out: t0.5λz (half-life) (converted); for k el: read-out: λz (terminal elimination rate constant) (converted); for Vz/F (volume of distribution) / Vd/F: 10 mg/kg; for Vd/F: rat, plasma, read-out: Vz/F (volume of distribution); for time at which maximal plasma concentration was attained (first sampling point): single i.p. dose of 10 mg/kg b.w.
Experimental: Six rats divided into two experimental groups were used in pharmacokinetic experiments. Three days before the experiment, the rats’ jugular vein was cannulated allowing for multiple blood sampling from a single animal. The investigated compounds were administered i.p. at a single dose of 10 mg/kg. Blood samples (approximately 300 µL) were collected in Eppendorf tubes containing heparin at 5, 15, 30, 60, 120, 240, and 360 min after dosing. Plasma was harvested by centrifuging at 5000× g for 10 min and stored at −30 °C until bioanalysis.
Plasma concentrations of KSK-60 or KSK-74 were measured using the liquid chromatography tandem mass spectrometry (LC-MS/MS) method. The samples (50 μL) were deproteinized in a 1:3 (v/v) ratio with acetonitrile containing an internal standard (IS—pentoxifylline), briefly vortexed, and then centrifuged for 10 min at a speed of 8000× g (Eppendorf miniSpin centrifuge). The supernatant was transferred to autosampler vials and a sample volume of 10 μL was injected into the LC-MS/MS system.
Chromatographic separation was performed on the analytical column XBridge™ C18 (3 × 50 mm, 5 µm, Waters, Dublin, Ireland) using the Agilent 1100 HPLC system (Agilent Technologies, Waldbronn, Germany). The mobile phase containing 0.1% formic acid in acetonitrile and 0.1% formic acid in water was run at 0.3 mL/min in gradient mode. Mass spectrometric detection was performed on an Applied Biosystems MDS Sciex (Concord, ON, Canada) API 2000 triple quadrupole mass spectrometer. Electrospray ionization (ESI) in the positive ion mode was used for ion production. The tandem mass spectrometer was operated at unit resolution in the selected reaction monitoring mode (SRM), monitoring the transitions of the protonated molecular ions m/z 396 to 107 (CE 80 V) for KSK-60, m/z 424 to 107 (CE 80 V) for KSK-74, and m/z 279 to 181 (CE 55 V) for IS. Data acquisition and processing were performed using the Applied Biosystems Analyst version 1.6 software. The calibration curves were constructed by plotting the ratio of the peak area of the studied compound to IS versus drug concentration, and generated by weighted (1/x · x) linear regression analysis. The validated quantitation ranges were from 1 to 2000 ng/mL. The calculated accuracy and precision were within the ranges proposed by the guidelines for the validation of bioanalytical methods (FDA, EMA). No significant matrix effect was observed and there were no stability-related problems during the routine analysis of the samples.
Pharmacokinetic parameters were calculated by employing a non-compartmental approach using Monolix version 2019R1 (Antony, France: Lixoft SAS, 2019) software. The area under the mean plasma concentration versus time curve extrapolated to infinity (AUC0-inf) was estimated using the log/linear trapezoidal rule. AUMC0-inf was estimated by calculating the total area under the first-moment curve by combining the trapezoid calculation of AUMC0-t and the extrapolated area. The mean residence time (MRT) was calculated from AUMC0-inf/AUC0-inf. The terminal rate constant (λz) was calculated by log-linear regression of the drug concentration data in the terminal phase, and the terminal half-life (t1/2) was calculated as 0.693/λz. Clearance (CL/F) was estimated from the administered dose divided by AUC0-inf. The apparent volume of distribution during the terminal phase (Vz/F) was calculated from (CL/F)/λz.

H3 histamine receptor = H3 histamine receptor (Homo sapiens, UniProt Q9Y5N1); test: Intrinsic activity at H3R, LANCE Ultra cAMP assay; assay type: cell-based
Experimental: Intrinsic activity studies were performed using two methods, Aequoscreen and LANCE Ultra cAMP assays, according to the manufacturer of the ready-to-use cells with stable expressions of the H3 histamine receptor (Perkin Elmer).
The assay is based on the competition between the europium (Eu) chelate-labeled cAMP tracer and sample cAMP for binding sites on cAMP-specific monoclonal antibodies labeled with the ULight dye.

H3R = biological target: T1, H3R (Homo sapiens, UniProt Q9Y5N1); test: Intrinsic activity at H3R, range over both methods (LANCE Ultra cAMP and Aequoscreen); assay type: cell-based; settings: read-out: IC50 at H3R, range depending on the assay method
T1 construct: the Aequoscreen line co-expresses apoaequorin
Experimental: The Aequoscreen technology uses recombinant cell lines with stable co-expression of apoaequorin and a GPCR as a system to detect activation of the receptor, following the addition of an agonist, via the measurement of light emission. For the measurement, cells (frozen, ready to use) were thawed and resuspended in 10 mL of assay buffer containing 5 μM of coelenterazine h. The cell suspension was then placed in a 10 mL Falcon tube, fixed on a rotating wheel, and incubated overnight at RT° in the dark. Cells were diluted with assay buffer at 5000 cells/20 µL. Agonistic ligands 2 × (50 μL/well), diluted in assay buffer, were prepared in 1/2 area white polystyrene plates, and 50 μL of cell suspension was dispersed on the ligands using the injector. The light emission was recorded for 20 s. Cells were incubated with antagonist for 15 min at RT°. Then, 50 µL of agonist (final concentration equal to 3 × EC80) was injected into the mixture of cells and antagonist and light emission was recorded for 20 s. The LANCE Ultra cAMP assay as a homogeneous time-resolved fluorescence resonance energy transfer (TR-FRET) immunoassay is designed to measure cAMP produced upon the modulation of adenylyl cyclase activity by GPCRs. […] For the measurement, cells (frozen, ready to use) were thawed and resuspended in 4 mL of HBSS 1×. […]

sigma-2 receptor = biological target: sigma-2 receptor; design: method as in PMID 34908391; settings: Figure 1; read-out: σ2R Ki; cited from earlier work

Sequence of H3 histamine receptor (Q9Y5N1 whole entry): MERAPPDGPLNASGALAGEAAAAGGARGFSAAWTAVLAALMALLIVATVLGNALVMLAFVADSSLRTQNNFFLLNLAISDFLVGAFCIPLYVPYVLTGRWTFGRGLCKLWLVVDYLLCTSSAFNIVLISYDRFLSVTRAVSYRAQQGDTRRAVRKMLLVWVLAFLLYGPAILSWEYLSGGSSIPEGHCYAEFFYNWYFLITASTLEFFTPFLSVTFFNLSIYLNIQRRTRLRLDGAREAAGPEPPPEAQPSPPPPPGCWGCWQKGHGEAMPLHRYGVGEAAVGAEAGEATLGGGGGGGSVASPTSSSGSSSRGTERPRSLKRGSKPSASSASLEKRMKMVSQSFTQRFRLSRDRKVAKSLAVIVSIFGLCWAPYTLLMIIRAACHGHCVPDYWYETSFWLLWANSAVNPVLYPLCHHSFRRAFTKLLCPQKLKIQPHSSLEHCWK
T1 sequence (Q9Y5N1 whole entry): as above

Tmax [2] [min] | Cmax [2] [ng/mL] | CL/F [2] [mL/min/kg] | MRT [2] [h] | half-life [2] [h] | k el [2] [s⁻¹] | Vz/F (volume of distribution) [2] [L/kg] | Vd/F [2] [L/kg] | time at which maximal plasma concentration was attained (first sampling point) [2] [min] | IC50 (H3 histamine receptor) [nM] | IC50 (H3R) [nM] | Compound | area under the IPGTT curve (AUC) vs rats fed high-calorie feed [1] | blood glucose levels after glucose load vs control animals fed palatable feed [1] | Ki (sigma-2 receptor) [nM]
4.98 | 109 | 1170 | 3.28 | 2.7 | 7.22e-05 | 272.63 | 272 | 5 | 0.78 ± 0.1 | 0.8 to 1.5 | CCC(=O)c1ccc(OCCCCCCN2CCN(c3ccncc3)CC2)cc1 [KSK-60] | decreased significantly | significantly lower at 30 or/and 60 min after glucose load | 110
4.98 | 105 | 2180 | 2.45 | 2.71 | 6.94e-05 | 513.14 | 513 | 5 | 23.2 ± 3.6 | 23 to 32 | CCC(=O)c1ccc(OCCCCCCCCN2CCN(c3ccncc3)CC2)cc1 [KSK-74] | decreased significantly | significantly lower at 30 or/and 60 min after glucose load | 65.9
